Experimental data published in patent publication US9738932B2, “Biomarkers for cardiovascular side-effects induced by cox-2 inhibitory compounds” (FIRALIS SAS, priority 2005, dated 2017).

Test system: mRNA expression in cardiovascular tissues
Assay: Affymetrix GeneChip mRNA expression profiling of monkey tissues (iliac vein, pulmonary vein, aorta, carotid artery, heart) after two-week oral-gavage treatment
Settings: iliac vein
[1] = group average (Vioxx without A60055)

CS(=O)(=O)c1ccc(C2=C(c3ccccc3)C(=O)OC2)cc1 [Vioxx®, rofecoxib]
HFE (211329_x_at) fold change vs control (animal A60055): 1.8 fold | HFE (211332_x_at) fold change vs control (animal A60055): 1.6 fold | HFE (211863_x_at) fold change vs control (animal A60055): 1.8 fold | HFE (211866_x_at) fold change vs control (animal A60055): 1.6 fold | HHL (203020_at) fold change vs control (animal A60055): 2.2 fold | HLA-A (211528_x_at) fold change vs control (animal A60055): 2.4 fold | HLA-A (211529_x_at) fold change vs control (animal A60055): 2.1 fold | HLA-A (211530_x_at) fold change vs control (animal A60055): 2.3 fold | HLA-A (215313_x_at) fold change vs control (animal A60055): 1.8 fold | HLA-B (208729_x_at) fold change vs control (animal A60055): 1.8 fold | HLA-B (209140_x_at) fold change vs control (animal A60055): 1.9 fold | HLA-B (211911_x_at) fold change vs control (animal A60055): 1.8 fold | HLA-C (208812_x_at) fold change vs control (animal A60055): 1.8 fold | HLA-C (214459_x_at) fold change vs control (animal A60055): 2.4 fold | HLA-C (216526_x_at) fold change vs control (animal A60055): 2.0 fold | HLA-DMA (217478_s_at) fold change vs control (animal A60055): 2.9 fold | HLA-DMB (203932_at) fold change vs control (animal A60055): 1.5 fold | HLA-DQA1 (212671_s_at) fold change vs control (animal A60055): 8.2 fold | HLA-DQB1 (209823_x_at) fold change vs control (animal A60055): 4.3 fold | HLA-DQB1 (211654_x_at) fold change vs control (animal A60055): 7.7 fold | HLA-DQB1 (211656_x_at) fold change vs control (animal A60055): 4.1 fold | HLA-DQB2 (212998_x_at) fold change vs control (animal A60055): 10.8 fold | HLA-DRA (208894_at) fold change vs control (animal A60055): 2.3 fold | HLA-DRA (210982_s_at) fold change vs control (animal A60055): 2.1 fold | HLA-DRB1 (215193_x_at) fold change vs control (animal A60055): 2.9 fold | HLA-DRB3 (209312_x_at) fold change vs control (animal A60055): 1.9 fold | HLA-DRB6 (217362_x_at) fold change vs control (animal A60055): 2.2 fold | HLA-E (200905_x_at) fold change vs control (animal A60055): 1.6 fold | HLA-E (217456_x_at) fold change vs control (animal A60055): 1.8 fold | HLA-F (204806_x_at) fold change vs control (animal A60055): 2.1 fold | HLA-F (221875_x_at) fold change vs control (animal A60055): 2.3 fold | ICAM1 (202638_s_at) fold change vs control (animal A60055): 1.6 fold | ICAM1 (215485_s_at) fold change vs control (animal A60055): 2.1 fold | ICSBP1 (204057_at) fold change vs control (animal A60055): 2.2 fold | IFI27 (202411_at) fold change vs control (animal A60055): 20.8 fold | IFI30 (201422_at) fold change vs control (animal A60055): 2.1 fold | IFI44 (214453_s_at) fold change vs control (animal A60055): 8.2 fold | IFIT1 (203153_at) fold change vs control (animal A60055): 5.0 fold | IFIT2 (217502_at) fold change vs control (animal A60055): 4.7 fold | IFIT4 (204747_at) fold change vs control (animal A60055): 1.6 fold | IFITM2 (201315_x_at) fold change vs control (animal A60055): 1.9 fold | IFITM3 (212203_x_at) fold change vs control (animal A60055): 1.6 fold | IGF1 (209541_at) fold change vs control (animal A60055): 1.8 fold | IGFBP4 (201508_at) fold change vs control (animal A60055): 1.7 fold | IL1A (208200_at) fold change vs control (animal A60055): 2.2 fold | IL2RG (204116_at) fold change vs control (animal A60055): 2.4 fold | IL27RA (205926_at) fold change vs control (animal A60055): 2.2 fold | INDO (210029_at) fold change vs control (animal A60055): 6.5 fold | INPP5D (203332_s_at) fold change vs control (animal A60055): 1.7 fold | IRF1 (202531_at) fold change vs control (animal A60055): 3.9 fold | IRF7 (208436_s_at) fold change vs control (animal A60055): 3.4 fold | ISGF3G (203882_at) fold change vs control (animal A60055): 3.1 fold | ITGB2 (202803_s_at) fold change vs control (animal A60055): 1.7 fold | JAK1 (214377_s_at) fold change vs control (animal A60055): 2.1 fold | KLKB1 (206541_at) fold change vs control (animal A60055): 2.2 fold | LAIR1 (208071_s_at) fold change vs control (animal A60055): 3.5 fold | LCK (204890_s_at) fold change vs control (animal A60055): 2.2 fold | LCP2 (205270_s_at) fold change vs control (animal A60055): 1.7 fold | LILRB1 (207857_at) fold change vs control (animal A60055): 2.1 fold | LILRB1 (211100_x_at) fold change vs control (animal A60055): 1.8 fold | LILRB3 (208594_x_at) fold change vs control (animal A60055): 1.7 fold | LILRB3 (210225_x_at) fold change vs control (animal A60055): 2.5 fold | LRMP (204674_at) fold change vs control (animal A60055): 2.6 fold | LY86 (205859_at) fold change vs control (animal A60055): 1.8 fold | LY96 (206584_at) fold change vs control (animal A60055): 1.8 fold | LYN (210754_s_at) fold change vs control (animal A60055): 1.7 fold | MAF (209348_s_at) fold change vs control (animal A60055): 1.7 fold | PCOLCE (202465_at) fold change vs control (animal A60055): 2.2 fold | PLA2G4C (209785_s_at) fold change vs control (animal A60055): 3.3 fold | PLCL2 (216217_at) fold change vs control (animal A60055): 1.7 fold | PLSCR1 (202446_s_at) fold change vs control (animal A60055): 2.1 fold | PRC1 (218009_s_at) fold change vs control (animal A60055): 2.0 fold | PRG1 (201858_s_at) fold change vs control (animal A60055): 1.8 fold | PRG1 (201859_at) fold change vs control (animal A60055): 1.5 fold | PTPN22 (206060_s_at) fold change vs control (animal A60055): 2.5 fold | PTPRC (207238_s_at) fold change vs control (animal A60055): 1.8 fold | SOCS3 (206360_s_at) fold change vs control (animal A60055): 1.8 fold | STAT1 (209969_s_at) fold change vs control (animal A60055): 13.5 fold | STAT1 (AFFX-HUMISGF3A/M97935_5_at) fold change vs control (animal A60055): 4.3 fold | STAT1 (AFFX-HUMISGF3A/M97935_MA_at) fold change vs control (animal A60055): 5.3 fold | STAT1 (AFFX-HUMISGF3A/M97935_MB_at) fold change vs control (animal A60055): 7.1 fold | TAPBP (208829_at) fold change vs control (animal A60055): 1.6 fold | TCTEL1 (201999_s_at) fold change vs control (animal A60055): 1.7 fold | TLR1 (210176_at) fold change vs control (animal A60055): 1.7 fold | TLR2 (204924_at) fold change vs control (animal A60055): 1.7 fold | TNFAIP3 (202643_s_at) fold change vs control (animal A60055): 2.0 fold | TNFAIP3 (202644_s_at) fold change vs control (animal A60055): 2.3 fold | TNFSF6 (210865_at) fold change vs control (animal A60055): 1.9 fold | TNFSF10 (202687_s_at) fold change vs control (animal A60055): 2.9 fold | TNFSF10 (202688_at) fold change vs control (animal A60055): 2.8 fold | TRGC2 (211144_x_at) fold change vs control (animal A60055): 2.0 fold | TRGC2 (216920_s_at) fold change vs control (animal A60055): 2.4 fold | VCAM1 (203868_s_at) fold change vs control (animal A60055): 4.1 fold | XCL1 (206366_x_at) fold change vs control (animal A60055): 4.3 fold | XCL1 (214567_s_at) fold change vs control (animal A60055): 5.4 fold | XLKD1 (219059_s_at) fold change vs control (animal A60055): 1.8 fold | cig5 (213797_at) fold change vs control (animal A60055): 7.1 fold | ACE (209749_s_at) mRNA expression, Avg fold changes vs control [1]: 0.9 fold | B2M (216231_s_at) mRNA expression, Avg fold changes vs control [1]: 1.2 fold
